The values below come from article PMC8560896 (Frontiers in Chemistry, 2021).

“Also recorded” adds a separate entry of the source. Some results are limits rather than exact numbers.

Series [1] deals with SH-SY5Y cells. Briefly: ROS measurement (H2DCF-DA, flow cytometry) after H2O2 insult. The format is cell-based, human. To be noted: for ROS measurement 250 nM / ROS measurement 500 nM / ROS measurement 1 μM / ROS measurement 10 μM: fluorescence relative to control = 1, H2O2 (100 μM) alone 6.31, 24 h + 3 h; for ROS measurement 250 nM: hybrid 250 nM; for ROS measurement 500 nM: hybrid 500 nM; for ROS measurement 1 μM: hybrid 1 μM; for ROS measurement 10 μM: hybrid 10 μM. The procedure: H2DCF-DA is a molecule that easily diffuses into cells and, through intracellular esterases, is split into H2DCF following the loss of the acetate group. H2DCF remains trapped within cells and is oxidized by intracellular ROS to form the highly fluorescent DCF compound. Spectrofluorimetric quantification of the DCF probe, provides the content of the ROS in the cell.
[…]. Subsequently, the growth medium was replaced with a fresh phenol red-free medium containing H2DCF-DA (25 μM). After 30 min at 37°C, the cells were washed twice to remove the extracellular H2DCF-DA, centrifuged, re-suspended in PBS, exposed to H2O2 (100 μM, 30 min) and the fluorescence was evaluated by flow cytometric analysis using a FACS Accury laser flow cytometer (Becton Dickinson). The results were expressed by setting the control equal to 1 and reporting all other values. H2O2 alone was used as a positive control.

The nature of series [2]: Oxygen radical absorbance capacity (ORAC) by fluorescence. The following applies: for ORAC: means ± SEM of three independent observations, sample 10 μM in 7% RMCD solution. The procedure: The measurement temperature was set at 37°C. A regression equation was built by comparing the net area under the FL decay curve and the Trolox concentration according to the following equation: Y(µM Trolox)=a+bX(AUC−n) and the final ORACFL values were expressed as Trolox equivalents (μmol g^−1).

Series [3] is described as follows: Cupric ion reducing antioxidant capacity (CUPRAC). The following applies: for TEAC: Supplementary Table 1, ε of compound divided by ε of Trolox; for CUPRAC: Trolox equivalent, 2% M-β-CD, A450 after 40 min. Here is the method:
The CUPRAC test was performed as reported by [Ozyürek et al. (2008)] on the new compounds in the unacetylated form.
CuCl2 solution 10 mM, was prepared by dissolving […] CuCl2 in water, and diluting to 250 ml. Neocuproine (Nc) solution 7.5 mM, was prepared by dissolving 15 mg of neocuproine in 10 ml of absolute EtOH. Ammonium acetate 1.0 M was prepared by dissolving 19.27 g of NH4Ac in 250 ml of water. The cyclodextrin (2% M-β-CD) stock solution was prepared in water-acetone (9:1 v/v). The standard solution of Trolox 1 mM was prepared in 2% M-β-CD. All working solutions of antioxidant 1 mM were freshly prepared in 2% M-β-CD.
1 ml of Cu(II) + 1 ml of Nc + 1 ml of NH4Ac buffer + x mL of antioxidant solution + (1.1 − x) 2% M-β-CD in 1:9 water–acetone mixture (v/v); total volume = 4.1 ml, measure A 450 against a reagent blank after 40 min of reagent addition at room temperature.
The Trolox equivalent antioxidant capacity (TEAC) is defined as the millimolar concentration of a Trolox solution having the antioxidant capacity equivalent to a 1.0 mM solution of the substance under investigation. The […] values were simply calculated by dividing the molar absorptivity ε of the species under investigation by that of Trolox under corresponding conditions. The concentration linearity ranges for all the antioxidants tested are reported in the Supplementary Material (See Supplementary Table S1).

Series [4] in a line: Metal-chelating properties by UV-vis spectroscopy. To be noted: compound 75 μM with CuSO4, FeSO4, FeCl3 or ZnCl2 150 μM in MeOH, 30 min. Here is the method:
The complexing studies for all the unprotected hybrids were carried out through a UV–vis spectroscopy assay with the wavelength ranging from 200 to 400 nm. The unprotected hybrids were dissolved in a 5% DMSO methanolic solution (3 mM). This solution was diluted with methanol to 150 µM. 2 ml of the 150 µM solution were mixed with 2 ml of methanol to record the spectra of the hybrids alone, or with 2 ml of the salts solution (300 µM). Then, the absorption spectra of the antioxidants (75 μM) alone or in the presence of CuSO4, FeSO4, FeCl3 or ZnCl2 (150 μM) mixed for 30 min in methanol at room temperature were recorded in a 1 cm quartz cell.

The test system of series [5] is SH-SY5Y cells. Briefly: MTT cell viability assay. The class given is cell-based, human. The following applies: for IC50: Homo sapiens, neurotoxic concentration, SH-SY5Y; for Effect on cell viability: 0.25–100 μM, 24 h. From the text:
The MTT test is based on the observation that live cells can reduce the water-soluble yellow tetrazolium salt [3-(4,5-dimethylthiazol-2-yl)-2,5-diphenyltetrazolium bromide] into water-insoluble blue/magenta formazan crystals, by dehydrogenase of the active mitochondria. Dissolved formazan crystals can be quantified using a spectrophotometer and the values obtained are in direct correlation to the number of metabolically active cells. For this reason, this colorimetric assay is used to evaluate cell viability.
The MTT assay was performed as reported in literature ([Corasaniti et al., 2007]). […].
The optical density was measured at wavelengths of 540 and 690 nm using a spectrophotometer (X MARK Spectrophotometer Microplate Bio-Rad).

Series [6] relates to SH-SY5Y cells. Description: MTT cell viability after H2O2 damage (neuroprotection). The class given is cell-based, human. The following applies: hybrids 21 h, then H2O2 100 μM 3 h; vs hydrogen peroxide alone.

In the case of `O=C(OCCc1ccc(O)c(O)c1)C1CCN(Cc2ccccc2)CC1` [HT1], in the series with SH-SY5Y cells [1], the “ROS measurement 250 nM” value stood at 6.18, the “ROS measurement 500 nM” value came out at 5.25, the “ROS measurement 1 μM” value is 5.47 and the “ROS measurement 10 μM” value is given as 5.49. Also, the ORAC in series [2] is 21.2 ± 1.6 µmol trolox l^−1. In series [3], the TEAC is recorded as 3,36 and the CUPRAC is on record as 3.36 (mmol of trolox)/(mmol of tested compound). Besides, the Metal chelating activity entry in series [4] is recorded as “able to chelate only Copper (II) efficiently; also recorded: showed metal chelating properties”. Moreover, in the series with SH-SY5Y cells [5], inhibition was half-maximal at 50 µM (IC50).
Consider `CC(=O)Oc1ccc(CCOC(=O)C2CCN(Cc3ccccc3)CC2)cc1OC(C)=O` [HT1a], for which, in the series with SH-SY5Y cells [1], the “ROS measurement 250 nM” value came out at 2.99, the “ROS measurement 500 nM” value was found to be 2.63, the “ROS measurement 1 μM” value came out at 2.51 and the “ROS measurement 10 μM” value came out at 2.66. The IC50 in the series on SH-SY5Y cells [5] was more than 50 µM.
For the compound `O=C(OCCc1cc(O)c(O)cc1[N+](=O)[O-])C1CCN(Cc2ccccc2)CC1` [HT2], the “Reduction of ROS amount (in words)” value in the series on SH-SY5Y cells [1] (H2O2 100 μM as toxic insult) is given as “the more effective one to reduce the ROS amount to the physiological values”. In the series with SH-SY5Y cells [1], the “ROS measurement 250 nM” value came out at 2.21, the “ROS measurement 500 nM” value turned out to be 1.97, the “ROS measurement 1 μM” value is recorded as 1.12 and the “ROS measurement 10 μM” value amounted to 1.38. Besides, in series [2], the “Reduction of ORAC antioxidant capacity compared to HT1” value is on record as approximately 3 times and the ORAC stood at 7.6 ± 0.2 µmol trolox l^−1. For the same compound, in series [3], the TEAC is 2,77 and the CUPRAC is 2.77 (mmol of trolox)/(mmol of tested compound). In addition, in series [4], the Metal chelating activity result is reported as “chelates all the metal cations; also recorded: showed metal chelating properties”. The compound also had an IC50 in the series on SH-SY5Y cells [5] of more than 50 µM. Moreover, in the series on SH-SY5Y cells [6], the “Protective effect on cell viability against H2O2 damage” value (from here on “Protective effect on cell viability”) is “statistically significant increase in cell viability; also recorded: able to attenuate cell injury against oxidative stress”.
For the compound `COc1cc(CCOC(=O)C2CCN(Cc3ccccc3)CC2)ccc1O` [HT3], in the series on SH-SY5Y cells [1], the “ROS measurement 250 nM” value is on record as 3.68, the “ROS measurement 500 nM” value turned out to be 2.91, the “ROS measurement 1 μM” value came out at 2.18 and the “ROS measurement 10 μM” value is recorded as 2.76. The ORAC in series [2] is recorded as 45.2 ± 3.6 µmol trolox l^−1. In addition, in series [3], the TEAC is 1,80 and the CUPRAC is listed as 1.80 (mmol of trolox)/(mmol of tested compound). Further, in the series on SH-SY5Y cells [5], the IC50 was more than 25 µM.
In the case of `COc1cc(CCOC(=O)C2CCN(Cc3ccccc3)CC2)ccc1OC(C)=O` [HT3a], in the series with SH-SY5Y cells [1], the “ROS measurement 250 nM” value was 2.27, the “ROS measurement 500 nM” value worked out at 1.94, the “ROS measurement 1 μM” value is on record as 1.58 and the “ROS measurement 10 μM” value came to 2.13. Besides, in the series on SH-SY5Y cells [5], the “Effect on cell viability” value is “reduction in cell viability was found for compounds HT3a and HT4a at concentrations higher than 10 μM”; the IC50 is more than 10 µM. Besides, the “Protective effect on cell viability” value with SH-SY5Y cells [6] was “statistically significant increase in cell viability; also recorded: able to attenuate cell injury against oxidative stress”.
As to `O=C(OCCc1ccc(O)cc1)C1CCN(Cc2ccccc2)CC1` [HT4], in the series on SH-SY5Y cells [1], the “ROS measurement 250 nM” value was 3.9, the “ROS measurement 500 nM” value was 3.2, the “ROS measurement 1 μM” value is reported as 3.64 and the “ROS measurement 10 μM” value is given as 3.67. Besides, the ORAC in series [2] was found to be 23.0 ± 2.0 µmol trolox l^−1. Moreover, in series [3], the TEAC is recorded as 0,99 and the CUPRAC is 0.99 (mmol of trolox)/(mmol of tested compound). Moreover, the IC50 with SH-SY5Y cells [5] is more than 25 µM.
`CC(=O)Oc1ccc(CCOC(=O)C2CCN(Cc3ccccc3)CC2)cc1` [HT4a]: in the series on SH-SY5Y cells [1], the “ROS measurement 250 nM” value worked out at 2.34, the “ROS measurement 500 nM” value was 2.77, the “ROS measurement 1 μM” value stood at 2.94 and the “ROS measurement 10 μM” value turned out to be 3.01. In the series with SH-SY5Y cells [5], the “Effect on cell viability” value is “reduction in cell viability was found for compounds HT3a and HT4a at concentrations higher than 10 μM”; the IC50 is more than 10 µM. In addition, the “Protective effect on cell viability” value in the series on SH-SY5Y cells [6] is “statistically significant increase in cell viability”.
`OCCc1ccc(O)c(O)c1` [HT, hydroxytyrosol, reference compound]: in series [2], the ORAC is given as 38.8 ± 4.4 µmol trolox l^−1. In series [3], the TEAC is given as 2,82 and the CUPRAC was 2.82 (mmol of trolox)/(mmol of tested compound).
In the case of `Cc1c(C)c2c(c(C)c1O)CCC(C)(C(=O)O)O2` (stereo not shown) [Trolox, reference compound], in series [3], the TEAC is 1 and the CUPRAC is reported as 1 (mmol of trolox)/(mmol of tested compound).
